# Patent publication US20110015410A1, “NOVEL USE OF SCOPARONE” (Kyungpook National University Industry Academic Cooperation …, priority 2007, published 2011)
# How the values were obtained:
# ROS = ROS production in vascular smooth muscle cells (DCF-DA fluorescence microscopy); type: cell-based, Sprague-Dawley white rats; settings: TNF-α-containing media, scoparone 100 μM and 200 μM, 1 hour
# Protocol: When vascular smooth muscle cells were grown to a confluence of about 90% in a 6-well cell culture dish, the cells were cultured in 0.5% FBS DMEM medium for 24 hours. The cultured cells were divided into a control group treated with neither tumor necrosis factor (TNF-α nor scoparone, and three test groups which were treated with scoparone in tumor necrosis factor (TNF-α)-containing media at scoparone concentrations of 0 μM, 100 μM and 200 μM, respectively. The cells of each group were incubated for 1 hour, and then 40 μmol/L of 2′,7′-dichlorofluorecin diacetate (DCF-DA; Invitrogen), a fluorescent probe sensitive to ROS, was added thereto, and the cells were incubated for 30 minutes. The production of ROS in the cells was analyzed using an AxioCam MRc5 Carl Zeiss fluorescence microscope (Thornwood, N.Y.) which was excited at a 488-nm wavelength and emitted at 515-nm wavelength.
# p53 = test: Expression of p53 in vascular smooth muscle cells (Western blot); type: cell-based, Sprague-Dawley white rats
# Protocol: (§1) Cultured vascular muscle cells were plated in a 60-mm tissue culture dish at a confluence of about 80-90%, and then cultured in 0.5% FBS containing medium for 24 hours to allow the cells to enter the stationary phase. The cultured cells were divided into a control group not treated with scoparone, and five test groups which were treated with 50 μg of scoparone for 2 hr, 4 hr, 6 hr, 12 hr and 24 hr, respectively. From each of the groups, the total protein was isolated using RIPA buffer. Each of the isolated total proteins was boiled in buffer for 5 minutes, and then cooled on ice. Then, each total protein was separated according to size by electrophoresis on sodium dodecyl sulfate polyacrylamide gel. Then, each total protein was transferred to a PVDF membrane which was then allowed to react with antibodies for p53, p27, p21 and Cyclin D to examine the expression of the proteins.
# NF-κB = test: DNA-binding activity of NF-κB (electrophoretic mobility shift assay); type: cell-based, Sprague-Dawley white rats; settings: 10 ng TNF-α; scoparone 0, 10, 20, 50 and 100 μM; 24 hours; EMSA
# Protocol: (§2) Proteins such as cell cycle regulatory proteins or chemokine are regulated by the respective transcription factors. Accordingly, the DNA-binding activities of AP-1 that is a transcription factor regulating the expression of cell cycle regulatory proteins, and NF-κB that is a transcription factor regulating the expression of chemokine were analyzed using an electrophoretic mobility shift assay (EMSA).
# (§3) Vascular smooth muscle cells were cultured in 0.5% FBS-containing medium for 24 hours. The cultured cells were divided into a control group treated with neither scoparone nor tumor necrosis factor (TNF-α, and five test groups which were treated with media containing 10 ng of tumor necrosis factor (TNF-α) for 24 hours at scoparone concentrations of 0 μM, 10 μM, 20 μM, 50 μM and 100 μM, respectively. Nuclear extracts were isolated from the vascular smooth muscle cells and labeled with radioisotope-labeled probes for AP-1 and NF-κB. Then, the labeled extracts were subjected to a protein-DNA reaction at room temperature for 20 minutes. After completion of the reaction, each sample was loaded on a 4% native polyarylamide gel and electrophoresed at 150 volt for 2 hours, followed by analysis.
# JNK = test: Phosphorylation of JNK in vascular smooth muscle cells (Western blot); type: cell-based, Sprague-Dawley white rats; settings: 50 μg of scoparone for 15, 30, 45, 60 and 90 min
# Protocol: (§4) In order to examine the signaling pathway of scoparone, the phosphorylation of JNK and Erk was examined.
# (§5) Cultured vascular smooth muscle cells were plated in a 60-mm tissue culture dish at a confluence of 80-90%, and then cultured in 0.5% FBS-containing medium for 24 hours to allow the cells to enter the stationary phase. The cultured cells were divided into a control group not treated with scoparone, and five test groups which were treated with 50 μg of scoparone for 15 min, 30 min, 45 min, 60 min and 90 min, respectively. From each of the groups, the total protein was isolated using RIPA buffer. Each of the isolated total proteins was boiled in buffer for 5 minutes, and then cooled on ice. Then, each total protein was separated according to size by electrophoresis on sodium dodecyl sulfate polyacrylamide gel. Then, each total protein was transferred to a PVDF membrane which was then allowed to react with antibodies for pJNK, JNK, pErk and Erk to examine the expression and phosphorylation of the proteins.
# AMPK = test: Phosphorylation of AMPK in vascular smooth muscle cells (Western blot); type: cell-based, Sprague-Dawley white rats; settings: 50 μg of scoparone for 1, 2, 4, 6 and 12 hr
# Protocol: (§6) Cultured vascular smooth muscle cells were plated in a 60-mm tissue culture dish at a confluence of about 80-90%, and then cultured in 0.5% FBS-containing medium for 24 hours to allow the cells to enter the stationary phase. The cultured cells were divided into a control group not treated with scoparone, and five test groups which were treated with 50 μg of scoparone for 1 hr, 2 hr, 4 hr, 6 hr and 12 hr, respectively. From each of the groups, the total protein was isolated using RIPA buffer. Each of the isolated total proteins was boiled in buffer for 5 minutes, and then cooled on ice. Then, each total protein was separated according to size by electrophoresis on sodium dodecyl sulfate polyacrylamide. Then, each total protein was transferred to a PVDF membrane which was then allowed to react with monoclonal antibodies for pACC, pAMPK and AMPK to examine the expression and phosphorylation of the proteins.
# AP-1 = test: DNA-binding activity of AP-1 (electrophoretic mobility shift assay); type: cell-based, Sprague-Dawley white rats; settings: 10 ng TNF-α; scoparone 0, 10, 20, 50 and 100 μM; 24 hours; EMSA
# Protocol: as §2, §3
# [1] = test system: neointima formation in carotid artery; test: Formation of neointima after balloon dilatation (carotid artery, H&E staining); type: in vivo, Sprague-Dawley white rats; settings: high-fat diet containing 10 mg/kg or 100 mg/kg of scoparone; 2 weeks after balloon dilatation; vs negative control group
# Protocol: In order to examine whether scoparone inhibits the formation of neointima after balloon dilatation, an experiment was performed using Sprague-Dawley white rats fed with scoparone-containing feed.
# As test subjects, male Sprague-Dawley white rats weighing about 300 g were used. The rats were grouped into a normal control group, a negative control group fed only with a high-fat diet (20% fat and 0.05% cholesterol) and a test group fed with a high-fat diet containing 10 mg/kg or 100 mg/kg of scoparone, each group consisting of 4 animals, and were kept at 22° C. under a 12-hr light/12-hr dark cycle. The negative control group and the test group were fed with the above-described diets from 3 days before performing balloon dilatation and were fed with the diets during 2 weeks after balloon dilatation. After 2 weeks, the carotid artery was isolated from the rats and stained with H&E (hematoxylin & eosin) in order to observe the formation of neointima. FIG. 2 is a micrograph (×100) showing the cross-section of the carotid artery of the rats 2 weeks after balloon dilatation.
# Erk = test: Phosphorylation of Erk in vascular smooth muscle cells (Western blot); type: cell-based, Sprague-Dawley white rats; settings: 50 μg of scoparone for 15, 30, 45, 60 and 90 min
# Protocol: as §4, §5
# ACC = test: Phosphorylation of ACC in vascular smooth muscle cells (Western blot); type: cell-based, Sprague-Dawley white rats; settings: 50 μg of scoparone for 1, 2, 4, 6 and 12 hr
# Protocol: as §6
# p21 = test: Expression of p21 in vascular smooth muscle cells (Western blot); type: cell-based, Sprague-Dawley white rats
# Protocol: as §1
# cyclin D = test: Expression of cyclin D in vascular smooth muscle cells (Western blot); type: cell-based, Sprague-Dawley white rats; settings: 50 μg of scoparone for 2, 4, 6, 12 and 24 hr
# Protocol: as §1
# p27 = test: Expression of p27 in vascular smooth muscle cells (Western blot); type: cell-based, Sprague-Dawley white rats
# Protocol: as §1
# [2] = test system: vascular smooth muscle cells; test: Inhibition of proliferation of vascular smooth muscle cells (WST cell counting); type: cell-based, Sprague-Dawley white rats; settings: scoparone 0, 5, 10, 20 or 50 μM, 48 hours, absorbance at 450 nm
# Protocol: Vascular smooth muscle cells were isolated from the thoracic aorta of Sprague-Dawley white rats and cultured in a medium containing 20% fetal bovine serum.
# The specificity of vascular smooth muscle cells was confirmed by staining the cells with α-actin monoclonal antibody (Sigma, St Louis, Mo., USA). In this experiment, vascular smooth muscle cells subcultured 5-6 times were used. The cultured vascular smooth muscle cells were plated in a 60-mm tissue culture dish at a confluence of about 80-90%, and then cultured in 0.5% FBS DMEM medium for 24 hours to allow the cells to enter the stationary phase.
# The primarily cultured vascular smooth muscle cells were cultured in a 96-well culture dish, and when the cells reached a confluence of 40%, the medium was replaced with 0.5% FBS-containing medium, and the cells were cultured for 24 hours to allow the cells to enter the stationary phase.
# VCAM-1 = test: Expression of VCAM-1 in vascular smooth muscle cells (Western blot); type: cell-based, Sprague-Dawley white rats; settings: TNF-α-containing media; scoparone 0, 10, 20, 50 and 100 μM; 24 hours
# Protocol: Cultured vascular smooth muscle cells were plated in a 60-mm tissue culture dish at a confluence of about 80-90%, and then cultured in 0.5% FBS-containing medium for 24 hours to allow the cells to enter the stationary phase. The cultured cells were divided into a control group treated with neither scoparone nor tumor necrosis factor (TNF-α, and five test groups which were treated with scoparone in tumor necrosis factor (TNF-α)-containing media for 24 hours at scoparone concentrations of 0 μM, 10 μM, 20 μM, 50 μM and 100 μM, respectively. In addition, the cells were divided into five groups which were treated with 50 μg of scoparone for 15 min, 30 min, 45 min, 60 min and 90 min, respectively. From each of the groups, the total protein was isolated using RIPA buffer. Each of the isolated total protein was boiled in buffer for 5 minutes, and then cooled on ice. Then, each total protein was separated according to size by electrophoresis on sodium dodecyl sulfate polyacrylamide gel. Then, each total protein was transferred to a PVDF membrane which was then allowed to react with antibodies for VCAM and PAI-1 to examine the expression of the proteins. The membrane was further allowed to react with anti-actin antibody to examine whether the antibody uses a given amount of the proteins.
# [3] = test system: human peripheral monocytes; settings: cited from earlier work
# [4] = high-cholesterol rabbit model; cited from earlier work
# [5] = test system: vascular smooth muscle cells; test: Proliferation of vascular smooth muscle cells on treatment with the AMPK inhibitor CompC; type: cell-based, Sprague-Dawley white rats; settings: cells treated with CompC, described as an AMPK inhibitor
# [6] = 50 μg of scoparone for 2, 4, 6, 12 and 24 hr
structure (smiles),measurement,setting,value
"COc1cc2ccc(=O)oc2cc1OC [scoparone, 6,7-dimethoxycoumarin]",expression of ROS,ROS,decreased
same,time of highest expression level of p53 after treatment,p53; 50 μg of scoparone,2 to 4 h
same,expression of p53,p53; [6],time-dependently increased
same,DNA binding activity of NF-κB,NF-κB,concentration-dependently decreased
same,phosphorylation of JNK,JNK,gradually increased with the passage of time
same,phosphorylation of AMPK,AMPK,time-dependently increased
same,DNA binding activity of AP-1,AP-1,concentration-dependently decreased
same,formation of neointima,[1],decreased compared to that in the negative control group
same,time of highest phosphorylation of Erk after treatment,Erk,45 min
same,phosphorylation of ACC,ACC,time-dependently increased
same,time of highest expression level of p21 after treatment,p21; 50 μg of scoparone,24 h
same,expression of p21,p21; [6],time-dependently increased
same,expression level of cyclin D,cyclin D,decreased
same,time of highest expression level of p27 after treatment,p27; 50 μg of scoparone,24 h
same,expression of p27,p27; [6],time-dependently increased
same,proliferation of the vascular smooth muscle cells,[2]; with 10 ng/ml TNF-α,decreased in a dose-dependent manner
same,proliferation of the vascular smooth muscle cells,[2]; with 20 ng/ml PDGF,decreased in a dose-dependent manner
same,expression of VCAM-1,VCAM-1,dose-dependently decreased
same,growth of human peripheral monocytes,[3],inhibits
same,cholesterol levels,[4],lowered
same,triglyceride levels,[4],lowered
c1cc(-c2cnn3cc(-c4ccc(OCCN5CCCCC5)cc4)cnc23)ccn1 [CompC],proliferation of the vascular smooth muscle cells,[5],restored again
